# pKi: −log10 of the molar value.
# Target: T1, Dimer of Gag-Pol polyprotein [489-587] (Human immunodeficiency virus 1, UniProt P12497)
# T1 construct: 489-587
# Experiment: Protease Inhibition Assay
# Excerpt: HIV-1 protease was purified and refolded from E. coli inclusion bodies. […] In the presence of HIV-l protease, the substrate is rapidly cleaved into two parts. The biotinylated amino terminal fragment binds to the avidin beads while the FITC-containing carboxy1 terminal fragment is removed through the membrane. […] The bound fluorescence is obtained by processing on an IDEXX Screen Machine. Determination of Ki values with this assay requires analysis under conditions in which substrate concentration resides substantially below Km and the inhibitor concentrations greatly exceeds the Ki value and the enzyme concentration.
SMILES,pKi,"pKi (pH 5, 22 °C)"
O=c1oc2c(c(O)c1C(c1cccc(NS(=O)(=O)c3ccc(F)cc3)c1)C1CC1)CCCCCC2 (stereo not drawn),8.51,–
"O=c1oc2c(c(O)c1C(c1cccc(NS(=O)(=O)c3ccc(Cl)c(Cl)c3Cl)c1)C1CC1)CCCCCC2 (stereo not drawn) [2,3,4-trichloro-N-{3-[cyclopropyl({4-hydroxy-2-oxo-2H,5H,6H,7H,8H,9H,10H-cycloocta[b]pyran-3-yl})methyl]phenyl}benzene-1-sulfonamide]",8.06,–
"O=c1oc2c(c(O)c1C(c1cccc(NS(=O)(=O)c3cccc(Cl)c3Cl)c1)C1CC1)CCCCCC2 (stereo not drawn) [2,3-dichloro-N-{3-[cyclopropyl({4-hydroxy-2-oxo-2H,5H,6H,7H,8H,9H,10H-cycloocta[b]pyran-3-yl})methyl]phenyl}benzene-1-sulfonamide]",8.12,–
"O=c1oc2c(c(O)c1C(c1cccc(NS(=O)(=O)c3ccc(Cl)cc3Cl)c1)C1CC1)CCCCCC2 (stereo not drawn) [2,4-dichloro-N-{3-[cyclopropyl({4-hydroxy-2-oxo-2H,5H,6H,7H,8H,9H,10H-cycloocta[b]pyran-3-yl})methyl]phenyl}benzene-1-sulfonamide]",8.21,–
"O=c1oc2c(c(O)c1C(c1cccc(NS(=O)(=O)c3cc(Cl)ccc3Cl)c1)C1CC1)CCCCCC2 (stereo not drawn) [2,5-dichloro-N-{3-[cyclopropyl({4-hydroxy-2-oxo-2H,5H,6H,7H,8H,9H,10H-cycloocta[b]pyran-3-yl})methyl]phenyl}benzene-1-sulfonamide]",7.13,–
"O=c1oc2c(c(O)c1C(c1cccc(NS(=O)(=O)c3c(Cl)cccc3Cl)c1)C1CC1)CCCCCC2 (stereo not drawn) [2,6-dichloro-N-{3-[cyclopropyl({4-hydroxy-2-oxo-2H,5H,6H,7H,8H,9H,10H-cycloocta[b]pyran-3-yl})methyl]phenyl}benzene-1-sulfonamide]",< 6.70,–
"O=c1oc2c(c(O)c1C(c1cccc(NS(=O)(=O)c3ccccc3Cl)c1)C1CC1)CCCCCC2 (stereo not drawn) [2-chloro-N-{3-[cyclopropyl({4-hydroxy-2-oxo-2H,5H,6H,7H,8H,9H,10H-cycloocta[b]pyran-3-yl})methyl]phenyl}benzene-1-sulfonamide]",–,8.03
"N#Cc1ccccc1S(=O)(=O)Nc1cccc(C(c2c(O)c3c(oc2=O)CCCCCC3)C2CC2)c1 (stereo not drawn) [2-cyano-N-{3-[cyclopropyl({4-hydroxy-2-oxo-2H,5H,6H,7H,8H,9H,10H-cycloocta[b]pyran-3-yl})methyl]phenyl}benzene-1-sulfonamide]",–,8.13
"O=c1oc2c(c(O)c1C(c1cccc(NS(=O)(=O)c3ccc(Cl)c(Cl)c3)c1)C1CC1)CCCCCC2 (stereo not drawn) [3,4-dichloro-N-{3-[cyclopropyl({4-hydroxy-2-oxo-2H,5H,6H,7H,8H,9H,10H-cycloocta[b]pyran-3-yl})methyl]phenyl}benzene-1-sulfonamide]",8.39,–
"O=c1oc2c(c(O)c1C(c1cccc(NS(=O)(=O)c3cc(Cl)cc(Cl)c3)c1)C1CC1)CCCCCC2 (stereo not drawn) [3,5-dichloro-N-{3-[cyclopropyl({4-hydroxy-2-oxo-2H,5H,6H,7H,8H,9H,10H-cycloocta[b]pyran-3-yl})methyl]phenyl}benzene-1-sulfonamide]",8.16,–
"O=c1oc2c(c(O)c1C(c1cccc(NS(=O)(=O)c3cccc(Br)c3)c1)C1CC1)CCCCCC2 (stereo not drawn) [3-bromo-N-{3-[cyclopropyl({4-hydroxy-2-oxo-2H,5H,6H,7H,8H,9H,10H-cycloocta[b]pyran-3-yl})methyl]phenyl}benzene-1-sulfonamide]",–,8.59
"O=c1oc2c(c(O)c1C(c1cccc(NS(=O)(=O)c3cccc(Cl)c3)c1)C1CC1)CCCCCC2 (stereo not drawn) [3-chloro-N-{3-[cyclopropyl({4-hydroxy-2-oxo-2H,5H,6H,7H,8H,9H,10H-cycloocta[b]pyran-3-yl})methyl]phenyl}benzene-1-sulfonamide]",–,8.57
"[N-]=[N+]=Nc1ccc(S(=O)(=O)Nc2cccc(C(c3c(O)c4c(oc3=O)CCCCCC4)C3CC3)c2)cc1 (stereo not drawn) [4-azido-N-{3-[cyclopropyl({4-hydroxy-2-oxo-2H,5H,6H,7H,8H,9H,10H-cycloocta[b]pyran-3-yl})methyl]phenyl}benzene-1-sulfonamide]",8.59,–

# Source: BindingDB's records for doi:10.1021/jm960441m (Upjohn, 1997)
